Reference: ChEMBL document CHEMBL6182864, “Design, synthesis and biological evaluation of 3-amino-6-(2-hydroxyphenyl)pyridazin-4-aryl derivatives as SMARCA2/4 degraders” (Eur J Med Chem, 2025)
Blank lines part the entries; values can stand above or below the molecule they belong to. Activity calls are given as the source filed them. No cut-off for these calls is given here.

Legend:
MV4-11 [1] = test: cells; settings: Homo sapiens, MV4-11, 72 h
MOLM-13 [2] = test: cells; settings: Homo sapiens, MOLM-13, 72 h
MOLM-13 [3] = test: Induction of SMARCA2 degradation in human MOLM-13 cells at 10 uM measured after 72 hrs by Western blotting analysis; assay type: cell-based
MOLM-13 [4] = test: Induction of SMARCA4 degradation in human MOLM-13 cells at 10 uM measured after 72 hrs by Western blotting analysis; assay type: cell-based
MV4-11 [5] = test: Induction of apoptosis in human MV4-11 cells assessed as viable cells at 100 nM measured after 72 hrs by Annexin-V-FITC/propidium iodide staining based flow cytometry (reference value: 89.49%); assay type: functional; settings: read-out: Activity
MV4-11 [6] = test: Induction of apoptosis in human MV4-11 cells assessed as early apoptotic cells at 100 nM measured after 72 hrs by Annexin-V-FITC/propidium iodide staining based flow cytometry (reference value: 9.32%); assay type: functional
MV4-11 [7] = test: Induction of apoptosis in human MV4-11 cells assessed as late apoptotic cells at 100 nM measured after 72 hrs by Annexin-V-FITC/propidium iodide staining based flow cytometry (reference value: 1.09%); assay type: functional
MV4-11 [8] = test: Induction of apoptosis in human MV4-11 cells assessed as necrotic cells at 100 nM measured after 72 hrs by Annexin-V-FITC/propidium iodide staining based flow cytometry (reference value: 0.1%); assay type: functional
MOLM-13 [9] = test: Induction of apoptosis in human MOLM-13 cells assessed as viable cells at 100 nM measured after 72 hrs by Annexin-V-FITC/propidium iodide staining based flow cytometry (reference value: 90.28%); assay type: functional; settings: read-out: Activity
MOLM-13 [10] = test: Induction of apoptosis in human MOLM-13 cells assessed as early apoptotic cells at 100 nM measured after 72 hrs by Annexin-V-FITC/propidium iodide staining based flow cytometry (reference value: 5.57%); assay type: functional
MOLM-13 [11] = test: Induction of apoptosis in human MOLM-13 cells assessed as late apoptotic cells at 100 nM measured after 72 hrs by Annexin-V-FITC/propidium iodide staining based flow cytometry (reference value: 3.87%); assay type: functional
MOLM-13 [12] = test: Induction of apoptosis in human MOLM-13 cells assessed as necrotic cells at 100 nM measured after 72 hrs by Annexin-V-FITC/propidium iodide staining based flow cytometry (reference value: 0.28%); assay type: functional
MV4-11 [13] = test: Induction of apoptosis in human MV4-11 cells assessed as viable cells at 300 nM measured after 72 hrs by Annexin-V-FITC/propidium iodide staining based flow cytometry (reference value: 89.49%); assay type: functional; settings: read-out: Activity
MV4-11 [14] = test: Induction of apoptosis in human MV4-11 cells assessed as early apoptotic cells at 300 nM measured after 72 hrs by Annexin-V-FITC/propidium iodide staining based flow cytometry (reference value: 9.32%); assay type: functional
MV4-11 [15] = test: Induction of apoptosis in human MV4-11 cells assessed as late apoptotic cells at 300 nM measured after 72 hrs by Annexin-V-FITC/propidium iodide staining based flow cytometry (reference value: 1.09%); assay type: functional
MV4-11 [16] = test: Induction of apoptosis in human MV4-11 cells assessed as necrotic cells at 300 nM measured after 72 hrs by Annexin-V-FITC/propidium iodide staining based flow cytometry (reference value: 0.1%); assay type: functional
MOLM-13 [17] = test: Induction of apoptosis in human MOLM-13 cells assessed as viable cells at 300 nM measured after 72 hrs by Annexin-V-FITC/propidium iodide staining based flow cytometry (reference value: 90.28%); assay type: functional; settings: read-out: Activity
MOLM-13 [18] = test: Induction of apoptosis in human MOLM-13 cells assessed as early apoptotic cells at 300 nM measured after 72 hrs by Annexin-V-FITC/propidium iodide staining based flow cytometry (reference value: 5.57%); assay type: functional
MOLM-13 [19] = test: Induction of apoptosis in human MOLM-13 cells assessed as late apoptotic cells at 300 nM measured after 72 hrs by Annexin-V-FITC/propidium iodide staining based flow cytometry (reference value: 3.87%); assay type: functional
MOLM-13 [20] = test: Induction of apoptosis in human MOLM-13 cells assessed as necrotic cells at 300 nM measured after 72 hrs by Annexin-V-FITC/propidium iodide staining based flow cytometry (reference value: 0.28%); assay type: functional
MV4-11 [21] = test: Induction of apoptosis in human MV4-11 cells assessed as viable cells at 1000 nM measured after 72 hrs by Annexin-V-FITC/propidium iodide staining based flow cytometry (reference value: 89.49%); assay type: functional; settings: read-out: Activity
MV4-11 [22] = test: Induction of apoptosis in human MV4-11 cells assessed as early apoptotic cells at 1000 nM measured after 72 hrs by Annexin-V-FITC/propidium iodide staining based flow cytometry (reference value: 9.32%); assay type: functional
MV4-11 [23] = test: Induction of apoptosis in human MV4-11 cells assessed as late apoptotic cells at 1000 nM measured after 72 hrs by Annexin-V-FITC/propidium iodide staining based flow cytometry (reference value: 1.09%); assay type: functional
MV4-11 [24] = test: Induction of apoptosis in human MV4-11 cells assessed as necrotic cells at 1000 nM measured after 72 hrs by Annexin-V-FITC/propidium iodide staining based flow cytometry (reference value: 0.1%); assay type: functional
MOLM-13 [25] = test: Induction of apoptosis in human MOLM-13 cells assessed as viable cells at 1000 nM measured after 72 hrs by Annexin-V-FITC/propidium iodide staining based flow cytometry (reference value: 90.28%); assay type: functional; settings: read-out: Activity
MOLM-13 [26] = test: Induction of apoptosis in human MOLM-13 cells assessed as early apoptotic cells at 1000 nM measured after 72 hrs by Annexin-V-FITC/propidium iodide staining based flow cytometry (reference value: 5.57%); assay type: functional
MOLM-13 [27] = test: Induction of apoptosis in human MOLM-13 cells assessed as late apoptotic cells at 1000 nM measured after 72 hrs by Annexin-V-FITC/propidium iodide staining based flow cytometry (reference value: 3.87%); assay type: functional
MOLM-13 [28] = test: Induction of apoptosis in human MOLM-13 cells assessed as necrotic cells at 1000 nM measured after 72 hrs by Annexin-V-FITC/propidium iodide staining based flow cytometry (reference value: 0.28%); assay type: functional

IC50 (MV4-11 [1]): 4.78 µM
IC50 (MOLM-13 [2]): 4.67 µM
SMILES: Cc1ncsc1-c1ccc(CNC(=O)[C@@H]2C[C@@H](O)CN2C(=O)[C@@H](NCc2ccc(-c3cc(-c4ccccc4O)nnc3N)cc2)C(C)(C)C)cc1

IC50 (MV4-11 [1]): 0.34 µM
IC50 (MOLM-13 [2]): 0.12 µM
SMILES: Cc1ncsc1-c1ccc([C@H](C)NC(=O)[C@@H]2C[C@@H](O)CN2C(=O)[C@@H](NC(=O)CCCc2ccc(-c3cc(-c4ccccc4O)nnc3N)cc2)C(C)(C)C)cc1

IC50 (MV4-11 [1]): 3.11 µM
IC50 (MOLM-13 [2]): 8.73 µM
SMILES: Cc1ncsc1-c1ccc([C@H](C)NC(=O)[C@@H]2C[C@@H](O)CN2C(=O)[C@@H](NC(=O)CCc2ccc(-c3cc(-c4ccccc4O)nnc3N)cc2)C(C)(C)C)cc1

IC50 (MV4-11 [1]): 5.07 µM
IC50 (MOLM-13 [2]): 9.61 µM
SMILES: Cc1ncsc1-c1ccc(CNC(=O)[C@@H]2C[C@@H](O)CN2C(=O)[C@@H](NC(=O)c2ccc(-c3cc(-c4ccccc4O)nnc3N)cc2)C(C)(C)C)cc1

IC50 (MV4-11 [1]): 0.71 µM
IC50 (MOLM-13 [2]): 2.73 µM
SMILES: Cc1ncsc1-c1ccc(CNC(=O)[C@@H]2C[C@@H](O)CN2C(=O)[C@@H](NC(=O)Cc2ccc(-c3cc(-c4ccccc4O)nnc3N)cc2)C(C)(C)C)cc1

IC50 (MV4-11 [1]): 0.24 µM
IC50 (MOLM-13 [2]): 3.82 µM
SMILES: Cc1ncsc1-c1ccc([C@H](C)NC(=O)[C@@H]2C[C@@H](O)CN2C(=O)[C@@H](NC(=O)Cc2ccc(-c3cc(-c4ccccc4O)nnc3N)cc2)C(C)(C)C)cc1

IC50 (MV4-11 [1]): 0.02 µM
IC50 (MOLM-13 [2]): 1.45 µM
SMILES: Cc1ncsc1-c1ccc(CNC(=O)[C@@H]2C[C@@H](O)CN2C(=O)[C@@H](NC(=O)CCCc2ccc(-c3cc(-c4ccccc4O)nnc3N)cc2)C(C)(C)C)cc1

IC50 (MV4-11 [1]): > 10 µM
IC50 (MOLM-13 [2]): > 10 µM
SMILES: Cc1ncsc1-c1ccc([C@H](C)NC(=O)[C@@H]2C[C@@H](O)CN2C(=O)[C@@H](NC(=O)c2ccc(-c3cc(-c4ccccc4O)nnc3N)cc2)C(C)(C)C)cc1

SMILES: CC(C)C[C@H](NC(=O)[C@H](Cc1ccccc1)NC(=O)c1cnccn1)B(O)O
Activity (MOLM-13 [3]): Active
Activity (MOLM-13 [4]): Active

IC50 (MV4-11 [1]): 5.75 µM
IC50 (MOLM-13 [2]): 5.1 µM
SMILES: Cc1ncsc1-c1ccc([C@H](C)NC(=O)[C@@H]2C[C@@H](O)CN2C(=O)[C@@H](NC(=O)CSc2ccc(-c3cc(-c4ccccc4O)nnc3N)cc2)C(C)(C)C)cc1

IC50 (MV4-11 [1]): 3.88 µM
IC50 (MOLM-13 [2]): 6.85 µM
SMILES: Cc1ncsc1-c1ccc([C@H](C)NC(=O)[C@@H]2C[C@@H](O)CN2C(=O)[C@@H](NCc2ccc(-c3cc(-c4ccccc4O)nnc3N)cc2)C(C)(C)C)cc1

IC50 (MV4-11 [1]): 5.77 µM
IC50 (MOLM-13 [2]): 7.78 µM
SMILES: Cc1ncsc1-c1ccc(CNC(=O)[C@@H]2C[C@@H](O)CN2C(=O)[C@@H](NC(=O)CSc2ccc(-c3cc(-c4ccccc4O)nnc3N)cc2)C(C)(C)C)cc1

IC50 (MV4-11 [1]): 2.14 µM
IC50 (MOLM-13 [2]): 3.87 µM
SMILES: Cc1ncsc1-c1ccc(CNC(=O)[C@@H]2C[C@@H](O)CN2C(=O)[C@@H](NC(=O)CCc2ccc(-c3cc(-c4ccccc4O)nnc3N)cc2)C(C)(C)C)cc1

IC50 (MV4-11 [1]): 0.12 µM
IC50 (MOLM-13 [2]): 0.46 µM
SMILES: Cc1ncsc1-c1ccc([C@H](C)NC(=O)[C@@H]2C[C@@H](O)CN2C(=O)[C@@H](NC(=O)COc2ccc(-c3cc(-c4ccccc4O)nnc3N)cc2)C(C)(C)C)cc1

SMILES: Cc1ncsc1-c1ccc([C@H](C)NC(=O)[C@@H]2C[C@@H](O)CN2C(=O)[C@@H](NC(=O)CN2CCN(c3cc(-c4ccccc4O)nnc3N)CC2)C(C)(C)C)cc1
viability at 0.1 µM (MV4-11 [5]): 24%
Activity (MV4-11 [6]): 52.03%
Activity (MV4-11 [7]): 22.53%
Activity (MV4-11 [8]): 1.43%
viability at 0.1 µM (MOLM-13 [9]): 53.7%
Activity (MOLM-13 [10]): 39.38%
Activity (MOLM-13 [11]): 6.71%
Activity (MOLM-13 [12]): 0.25%
viability at 0.3 µM (MV4-11 [13]): 19.1%
Activity (MV4-11 [14]): 52.83%
Activity (MV4-11 [15]): 26.43%
Activity (MV4-11 [16]): 1.63%
viability at 0.3 µM (MOLM-13 [17]): 21.8%
Activity (MOLM-13 [18]): 62.09%
Activity (MOLM-13 [19]): 15.85%
Activity (MOLM-13 [20]): 0.31%
viability at 1 µM (MV4-11 [21]): 18.5%
Activity (MV4-11 [22]): 56.45%
Activity (MV4-11 [23]): 24.02%
Activity (MV4-11 [24]): 1.01%
viability at 1 µM (MOLM-13 [25]): 13.9%
Activity (MOLM-13 [26]): 58.07%
Activity (MOLM-13 [27]): 27.77%
Activity (MOLM-13 [28]): 0.28%

IC50 (MV4-11 [1]): 0.3 µM
IC50 (MOLM-13 [2]): 0.85 µM
SMILES: Cc1ncsc1-c1ccc(CNC(=O)[C@@H]2C[C@@H](O)CN2C(=O)[C@@H](NC(=O)COc2ccc(-c3cc(-c4ccccc4O)nnc3N)cc2)C(C)(C)C)cc1

SMILES: NS(=O)(=O)OC[C@@H]1C[C@@H](n2ccc3c(N[C@H]4CCc5ccccc54)ncnc32)C[C@@H]1O
Activity (MOLM-13 [3]): Active
Activity (MOLM-13 [4]): Active

IC50 (MV4-11 [1]): 0.03 µM
IC50 (MOLM-13 [2]): 0.26 µM
SMILES: Cc1ncsc1-c1ccc(CNC(=O)[C@@H]2C[C@@H](O)CN2C(=O)[C@@H](NC(=O)C2(c3ccc(-c4cc(-c5ccccc5O)nnc4N)cc3)CC2)C(C)(C)C)cc1
